Test results as given in patent publication US8741934B2, “Inhibitors of ion channels” (Pfizer Limited, priority 2007, dated 2014).

Target: T1, hSCN3A sodium channels (Homo sapiens, UniProt Q9NY46)
T1 construct: expressed in transfected cells
Assay: hSCN3A electrophysiology, Ionworks Quattro automated platform (Table C)
Format: cell-based
Settings: for inhibition at 3 µM: read-out: SCN3A % INHIB HTS IWQ 3 μM; for inhibition at 10 µM: read-out: SCN3A % INHIB HTS IWQ 10 μM; for SCN3A INHIB INACT DRC EP IWQ EMAX: Emax of dose-response curve, inactivated state
Method: Human Embryonic Kidney (HEK) cells were transfected with an hSCN3A construct using lipofectamine reagent (Invitrogen), using standard techniques. […] Clones were screened for expression using the whole-cell voltage-clamp technique.
HEK cells stably transfected with hSCN3A were maintained in DMEM medium supplemented with 10% heat-inactivated fetal bovine serum and 400 μg/ml G418 sulfate in an incubator at 37° C. with a humidified atmosphere of 10% CO2. […] For electrophysiological studies, cells were removed from the culture flask by brief trypsinization and replated at low density onto glass cover slips. Cells were typically used for electrophysiological experiments within 24 to 72 h after plating.
Electrophysiological assays were also conducted using the Ionworks Quattro automated electrophysiological platform (Molecular Devices Corp) (Table C). Intracellular and extracellular solutions were as described above with the following changes, 100 μg/ml amphotericin was added to the intracellular solution to perforate the membrane and allow electrical access to the cells. hSCN3A cells were grown and harvested as for PatchXpress and cells were resuspended in extracellular solution at a concentration of 3-4×10^6 cells/ml. The onboard liquid handling facility of the Ionworks Quattro was used for dispensing cells and application of test compounds. A voltage protocol was then applied that comprised of a voltage step to fully inactivate the sodium channels, followed by a brief hyperpolarized recovery period to allow partial recovery from inactivation for unblocked sodium channels, followed by a test depolarized voltage step to assess magnitude of inhibition by test compound. Compound effect was determined based on current amplitude difference between the pre-compound addition and post-compound addition scans.

T1 sequence (Q9NY46 whole entry): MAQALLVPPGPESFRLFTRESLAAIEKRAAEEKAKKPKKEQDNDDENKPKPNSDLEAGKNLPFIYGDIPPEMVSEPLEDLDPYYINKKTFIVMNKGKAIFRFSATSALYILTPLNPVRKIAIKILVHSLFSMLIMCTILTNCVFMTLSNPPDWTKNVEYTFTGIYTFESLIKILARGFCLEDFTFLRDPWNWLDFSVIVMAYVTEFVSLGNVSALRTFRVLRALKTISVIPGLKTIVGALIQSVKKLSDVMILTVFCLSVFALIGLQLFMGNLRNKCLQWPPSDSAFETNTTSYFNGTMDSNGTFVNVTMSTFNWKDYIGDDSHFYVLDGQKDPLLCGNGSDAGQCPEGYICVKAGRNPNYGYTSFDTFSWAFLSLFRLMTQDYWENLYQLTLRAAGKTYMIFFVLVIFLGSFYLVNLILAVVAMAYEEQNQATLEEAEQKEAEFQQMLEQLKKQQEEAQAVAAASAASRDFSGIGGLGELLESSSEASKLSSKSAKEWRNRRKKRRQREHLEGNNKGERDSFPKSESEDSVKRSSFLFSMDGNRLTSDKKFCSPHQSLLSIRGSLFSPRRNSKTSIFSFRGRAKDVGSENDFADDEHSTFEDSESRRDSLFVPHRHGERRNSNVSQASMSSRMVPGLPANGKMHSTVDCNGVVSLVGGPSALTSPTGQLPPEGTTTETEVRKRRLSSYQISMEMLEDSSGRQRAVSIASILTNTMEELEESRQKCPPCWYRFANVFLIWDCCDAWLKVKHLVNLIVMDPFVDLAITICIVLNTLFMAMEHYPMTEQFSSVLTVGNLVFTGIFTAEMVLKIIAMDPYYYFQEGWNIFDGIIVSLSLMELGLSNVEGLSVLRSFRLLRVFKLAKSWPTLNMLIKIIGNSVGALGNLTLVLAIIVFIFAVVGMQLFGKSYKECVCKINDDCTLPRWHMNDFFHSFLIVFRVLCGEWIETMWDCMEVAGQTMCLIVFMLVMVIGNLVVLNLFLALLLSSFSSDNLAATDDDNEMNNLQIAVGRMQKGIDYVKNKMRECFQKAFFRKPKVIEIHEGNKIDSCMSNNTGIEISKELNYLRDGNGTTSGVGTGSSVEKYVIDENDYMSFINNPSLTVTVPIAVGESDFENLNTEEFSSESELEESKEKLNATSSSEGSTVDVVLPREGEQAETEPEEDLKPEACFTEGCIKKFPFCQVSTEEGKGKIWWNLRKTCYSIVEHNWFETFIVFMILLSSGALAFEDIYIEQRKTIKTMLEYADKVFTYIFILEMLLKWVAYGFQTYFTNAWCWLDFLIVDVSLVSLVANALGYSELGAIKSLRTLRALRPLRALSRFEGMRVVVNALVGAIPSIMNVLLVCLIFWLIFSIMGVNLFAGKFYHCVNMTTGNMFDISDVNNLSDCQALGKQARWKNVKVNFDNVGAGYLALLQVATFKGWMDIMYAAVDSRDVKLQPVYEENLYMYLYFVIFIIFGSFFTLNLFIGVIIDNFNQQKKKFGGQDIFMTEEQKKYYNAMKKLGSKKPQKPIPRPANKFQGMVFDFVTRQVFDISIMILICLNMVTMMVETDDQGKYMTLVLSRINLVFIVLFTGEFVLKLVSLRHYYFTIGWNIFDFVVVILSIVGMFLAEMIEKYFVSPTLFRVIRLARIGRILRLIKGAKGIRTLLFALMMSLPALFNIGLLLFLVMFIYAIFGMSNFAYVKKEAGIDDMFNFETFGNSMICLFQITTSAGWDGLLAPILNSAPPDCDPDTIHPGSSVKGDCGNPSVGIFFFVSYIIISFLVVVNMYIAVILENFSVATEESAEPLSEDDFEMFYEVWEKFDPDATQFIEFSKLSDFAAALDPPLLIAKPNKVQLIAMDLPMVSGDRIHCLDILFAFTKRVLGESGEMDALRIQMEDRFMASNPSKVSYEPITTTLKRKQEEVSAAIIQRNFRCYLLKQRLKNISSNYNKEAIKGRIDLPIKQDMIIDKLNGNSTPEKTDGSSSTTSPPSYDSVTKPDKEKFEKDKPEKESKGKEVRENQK

SMILES | inhibition at 3 µM (3 μM compound) [%] | inhibition at 10 µM (10 μM compound) [%] | SCN3A INHIB INACT DRC EP IWQ EMAX | IC50 (read-out: SCN3A IWQ IC-50) [µM] | SCN3A % INHIB HTS IWQ 3 μM (3 μM compound) [%] | SCN3A % INHIB HTS IWQ 10 μM (10 μM compound) [%]
O=C(NCc1c(F)cccc1Cl)c1ccc(S(=O)(=O)Nc2nccs2)cc1 [Example 86, N-(2-chloro-6-fluorobenzyl)-4-[(1,3-thiazol-2-ylamino)sulfonyl]benzamide] | 22.3 | 26.3 | – | – | – | –
CC(Cc1ccc(C(F)(F)F)cc1)NC(=O)c1ccc(S(=O)(=O)Nc2nccs2)cc1 (stereo not drawn) [Example 130, N-{1-methyl-2-[4-(trifluoromethyl)phenyl]ethyl}-4-[(1,3-thiazol-2-ylamino)sulfonyl]benzamide] | 23.1 | 16.5 | – | – | – | –
N#Cc1cccc(OCC2CCCN(C(=O)c3ccc(S(=O)(=O)Nc4nccs4)cc3)C2)c1 (stereo not drawn) [Example 278, 4-({3-[(3-Cyanophenoxy)methyl]piperidin-1-yl}carbonyl)-N-1,3-thiazol-2-yl-benzenesulfonamide] | 25.4 | 30 | – | – | – | –
O=C(c1ccc(S(=O)(=O)Nc2nccs2)cc1)N1CCOC(COc2cccc(Cl)c2)C1 (stereo not drawn) [Example 234, 4-({2-[(3-Chlorophenoxy)methyl]morpholin-4-yl}carbonyl)-N-1,3-thiazol-2-yl-benzenesulfonamide] | 32 | 45.9 | 43.1 | – | – | –
O=C(NC(CO)c1ccccc1Cl)c1ccc(S(=O)(=O)Nc2nccs2)cc1 (stereo not drawn) [Example 56, N-[1-(2-chlorophenyl)-2-hydroxyethyl]-4-[(1,3-thiazol-2-ylamino)sulfonyl]benzamide] | 3.23 | 2.53 | – | – | – | –
O=C(c1ccc(S(=O)(=O)Nc2nccs2)cc1)N1CCC(COCC2CC2)C1 (stereo not drawn) [Example 269, 4-({3-[(Cyclopropylmethoxy)methyl]pyrrolidin-1-yl}carbonyl)-N-1,3-thiazol-2-yl-benzenesulfonamide] | 0.37 | 16.5 | – | – | – | –
COc1ccc(OC2CCCN(C(=O)c3ccc(S(=O)(=O)Nc4nccs4)cc3)C2)cc1 (stereo not drawn) [Example 203, 4-{[3-(4-Methoxyphenoxy)piperidin-1-yl]carbonyl}-N-1,3-thiazol-2-yl-benzenesulfonamide] | 13.1 | 17.7 | – | – | – | –
O=C(c1ccc(S(=O)(=O)Nc2nccs2)cc1)N1CCCC1c1ccccn1 (stereo not drawn) [Example 283, 4-[(2-Pyridin-2-ylpyrrolidin-1-yl)carbonyl]-N-1,3-thiazol-2-ylbenzenesulfonamide] | -1.98 | 0.98 | – | – | – | –
N#Cc1cccc(OC2CCCN(C(=O)c3ccc(S(=O)(=O)Nc4nccs4)cc3)C2)c1 (stereo not drawn) [Example 265, 4-{[3-(3-Cyanophenoxy)piperidin-1-yl]carbonyl}-N-1,3-thiazol-2-yl-benzenesulfonamide] | 22.6 | 44.3 | 32.2 | – | – | –
O=C(c1ccc(S(=O)(=O)Nc2nccs2)cc1)N1CCOCC(O)(Cc2ccccc2)C1 (stereo not drawn) [Example 258, 4-[(6-Benzyl-6-hydroxy-1,4-oxazepan-4-yl)carbonyl]-N-1,3-thiazol-2-yl-benzenesulfonamide] | 0.17 | 12 | – | – | – | –
O=C(NCCc1ccccc1F)c1ccc(S(=O)(=O)Nc2nccs2)cc1 [Example 77, N-[2-(2-fluorophenyl)ethyl]-4-[(1,3-thiazol-2-ylamino)sulfonyl]benzamide] | 16.6 | 27.9 | – | – | – | –
Cc1ccc(OCCNC(=O)c2ccc(S(=O)(=O)Nc3nccs3)cc2)cc1 [Example 154, N-[2-(4-methylphenoxy)ethyl]-4-[(1,3-thiazol-2-ylamino)sulfonyl]benzamide] | 28 | 30.8 | – | – | – | –
O=C(c1ccc(S(=O)(=O)Nc2nccs2)cc1)N1CCSCC1c1ccc(F)cc1 (stereo not drawn) [Example 223, 4-{[3-(4-Fluorophenyl)thiomorpholin-4-yl]carbonyl}-N-1,3-thiazol-2-yl-benzenesulfonamide] | 36.9 | 47.5 | 46.3 | 33 | – | –
Cc1cccc(CC2COCCN(C(=O)c3ccc(S(=O)(=O)Nc4nccs4)cc3)C2)n1 (stereo not drawn) [Example 225, 4-({6-[(6-Methylpyridin-2-yl)methyl]-1,4-oxazepan-4-yl}carbonyl)-N-1,3-thiazol-2-yl-benzenesulfonamide] | 6.08 | -8.14 | – | – | – | –
O=C(N[C@@H]1CCC[C@@H]1c1cc(F)cc(F)c1)c1ccc(S(=O)(=O)Nc2nccs2)cc1 [Example 128, N-[(1R,2R)-2-(3,5-difluorophenyl)cyclopentyl]-4-[(1,3-thiazol-2-ylamino)sulfonyl]benzamide] | 11.7 | -1.66 | – | – | – | –
O=C(N[C@@H](CO)Cc1ccccc1)c1ccc(S(=O)(=O)Nc2nccs2)cc1 [Example 185, N-[(1R)-1-benzyl-2-hydroxyethyl]-4-[(1,3-thiazol-2-ylamino)sulfonyl]benzamide] | 20.9 | 20.8 | – | – | – | –

SMILES | inhibition at 3 µM (3 μM compound) [%] | inhibition at 10 µM (10 μM compound) [%] | SCN3A INHIB INACT DRC EP IWQ EMAX | IC50 (read-out: SCN3A IWQ IC-50) [µM] | SCN3A % INHIB HTS IWQ 3 μM (3 μM compound) [%] | SCN3A % INHIB HTS IWQ 10 μM (10 μM compound) [%]
O=C(NC1(c2cccc(Cl)c2)CC1)c1ccc(S(=O)(=O)Nc2nccs2)cc1 [Example 135, N-[1-(3-chlorophenyl)cyclopropyl]-4-[(1,3-thiazol-2-ylamino)sulfonyl]benzamide] | 27.4 | 30.1 | – | – | – | –
O=C(c1ccccc1)C1CCCN(C(=O)c2ccc(S(=O)(=O)Nc3nccs3)cc2)C1 (stereo not drawn) [Example 253, 4-[(3-Benzoylpiperidin-1-yl)carbonyl]-N-1,3-thiazol-2-yl-benzenesulfonamide] | 5.99 | 31.3 | – | – | – | –
Cc1ccc(C2CCCCN2C(=O)c2ccc(S(=O)(=O)Nc3nccs3)cc2)cc1 (stereo not drawn) [Example 207, 4-{[2-(4-Methylphenyl)piperidin-l-yl]carbonyl}-N-1,3-thiazol-2-yl-benzenesulfonamide] | – | – | – | – | 27.25 | −16.86
CC(C)N(Cc1ccccc1)C(=O)c1ccc(S(=O)(=O)Nc2nccs2)cc1 [Example 187, N-benzyl-N-isopropyl-4-[(1,3-thiazol-2-ylamino)sulfonyl]benzamide] | 5.69 | 4.2 | – | – | – | –
O=C(c1ccc(S(=O)(=O)Nc2nccs2)cc1)N1CCOCC(Cc2ccccc2)C1 (stereo not drawn) [Example 259, 4-[(6-Benzyl-1,4-oxazepan-4-yl)carbonyl]-N-1,3-thiazol-2-yl-benzenesulfonamide] | 5.51 | 19.6 | – | – | – | –
COc1ccc(C2CC(CO)CN2C(=O)c2ccc(S(=O)(=O)Nc3nccs3)cc2)cc1 (stereo not drawn) [Example 280, 4-{[4-(Hydroxymethyl)-2-(4-methoxyphenyl)pyrrolidin-1-yl]carbonyl}-N-1,3-thiazol-2-yl-benzenesulfonamide] | 13.2 | 17 | – | – | – | –
CN(C(=O)c1ccc(S(=O)(=O)Nc2nccs2)cc1)C(Cc1ccccc1)c1ccccc1 (stereo not drawn) [Example 251, N-(1,2-diphenylethyl)-N-methyl-4-[(1,3-thiazol-2-ylamino)sulfonyl]benzamide] | 19.9 | 0.8 | – | – | – | –
Cc1ccc([C@H](C)NC(=O)c2ccc(S(=O)(=O)Nc3nccs3)cc2)cc1 [Example 79, N-[(1S)-1-(4-methylphenyl)ethyl]-4-[(1,3-thiazol-2-ylamino)sulfonyl]benzamide] | 17.7 | -1.9 | – | – | – | –
O=C(c1ccc(S(=O)(=O)Nc2nccs2)cc1)N1CCCCC1Cc1ccccn1 (stereo not drawn) [Example 244, 4-{[2-(Pyridin-2-ylmethyl)piperidin-1-yl]carbonyl}-N-1,3-thiazol-2-yl-benzenesulfonamide] | 14.2 | 21.9 | – | – | – | –
O=C(N[C@@H]1COC[C@@H]1c1ccc(F)cc1)c1ccc(S(=O)(=O)Nc2nccs2)cc1 [Example 179, N-[(3S,4R)-4-(4-fluorophenyl)tetrahydrofuran-3-yl]-4-[(1,3-thiazol-2-ylamino)sulfonyl]benzamide] | 9.95 | 15.9 | – | – | – | –
O=C(NCCOc1ccccc1)c1ccc(S(=O)(=O)Nc2nccs2)cc1 [Example 168, N-(2-phenoxyethyl)-4-[(1,3-thiazol-2-ylamino)sulfonyl]benzamide] | 31.4 | 39.3 | – | – | – | –
O=C(NCc1ccccc1)c1ccc(S(=O)(=O)Nc2nccs2)cc1 [Example 171, N-benzyl-4-[(1,3-thiazol-2-ylamino)sulfonyl]benzamide] | 39.5 | 52.8 | – | – | – | –
CC(CNC(=O)c1ccc(S(=O)(=O)Nc2nccs2)cc1)Oc1ccccc1 (stereo not drawn) [Example 161, N-(2-phenoxypropyl)-4-[(1,3-thiazol-2-ylamino)sulfonyl]benzamide] | 30.3 | 32.4 | – | – | – | –
CC(Cc1ccc(F)c(F)c1)NC(=O)c1ccc(S(=O)(=O)Nc2nccs2)cc1 (stereo not drawn) [Example 151, N-[2-(3,4-difluorophenyl)-1-methylethyl]-4-[(1,3-thiazol-2-ylamino)sulfonyl]benzamide] | 17.4 | 12.7 | – | – | – | –
CC(C)(NC(=O)c1ccc(S(=O)(=O)Nc2nccs2)cc1)c1cccc(Cl)c1 [Example 127, N-[1-(3-chlorophenyl)-1-methylethyl]-4-[(1,3-thiazol-2-ylamino)sulfonyl]benzamide] | 28.9 | 28.7 | – | – | – | –
